Source: patent publication US20260041093A1, “Ionic Derivatives Of Aromatic Carboxylic Acid For Use As Plant Stimulants, Method For Stimulating Plants And Use Of These Derivatives For Manufacturing Compositions For Stimulating Plants” (FUNDACJA UNIWERSYTETU IM. ADAMA MICKIEWICZA W POZNANIU, priority 2022, published 2026)
Where two headings read alike, the source gives them in different places.

Experiments:
[1] = system: Pseudomonas syringae pv. Tomato; assay: Direct effect on bacterial infectivity (Example 22); format: in vivo; settings: tobacco plant, 5 days after infection with solution of bacteria and test substance; control 100
Method: Proceeding as in example 21, Pseudomonas syringae pv. Tomato bacteria were tested and incubated in bacterial medium.

[2] = system: powdery mildew fungus; assay: Direct effect on fungal infectivity (Example 23); format: in vivo; settings: tobacco plant, 5 days after infection with solution of fungus and test substance; control 100
Method: Proceeding as in Example 21, the test was performed on the powdery mildew fungus, which was then incubated on the medium.

[3] = system: tobacco mosaic virus (TMV); assay: Direct effect on TMV infectivity: virus incubated with substance, then Xanthi tobacco leaves infected (Example 21); format: in vivo; settings: TMV about 3 μg/ml mixed 1:1 with substance 80 mg/L, 30 min; 5 days after infection; control 100
Method: Sodium 3-chlorosalicylate; 5. Potassium 3-chlorosalicylate; 6. Calcium 3-chlorosalicylate; 7. Magnesium 3-chlorosalicylate (concentration 80 mg/L), in a 1:1 ratio and incubated for 30 min at room temperature. The control variant consisted of TMV incubated in water. All virus suspensions were used to mechanically infect Xanthi tobacco leaves, whose reaction to infection is manifested in easily quantifiable local necrotic spots (hypersensitivity, local infection).
After 5 days, the area of leaf covered by necrotic spots compared to total leaf area was calculated for plants of all variants of treatment.

[4] = system: Tobacco Mosaic Virus (TMV); assay: Protection of tobacco against TMV infection by spraying twice (Example 25); format: in vivo, Nicotiana tabacum cv. Xanthi; settings: sprayed twice, 7 days after infection
Excerpt: 5-chlorosalicylate of choline; 3. 3,5-dichlorosalicylate of choline; 4. 3-chlorosalicylate of sodium, 5. 3-chlorosalicylate of potassium, 6. 3-chlorosalicylate of calcium, 7.

[5] = system: powdery mildew fungus; assay: Protection of tomato against powdery mildew by spraying (Example 35); format: in vivo, Lycopersicon Esculentum Mill tomato; settings: 40 mg/l, sprayed twice; 2 weeks after pathogen inoculation
Method: […] The control was tomato plants watered only with water. […] The suspension was prepared from culture on solid medium. Protection against biotic stress was evaluated by comparing the area of leaves affected by infection.
Proceeded in the way as described in Example 34, with the difference that plants were sprayed and not watered.

[6] = system: Pseudomonas syringae pv. Tomato (Pst); assay: Protection of tomato against Pseudomonas syringae pv. Tomato by spraying (Example 33); format: in vivo, Lycopersicon Esculentum Mill tomato; settings: 80 mg/L, sprayed twice; 2 weeks after infection
Method: (§1) Tomato plants, at the stage of the first pair of developed true leaves, were watered twice with a solution of substance 1-6 at a concentration of 80 mg/L, at a weekly interval. The control was tomato plants watered only with water. One week after the second treatment, a suspension of Pst bacteria at a concentration of 10^5 was spot-injected into the leaves using an insulin syringe (without a needle). The suspension was prepared from a two-day culture of Pst on solid medium. Protection against biotic stress was evaluated by the proliferation of bacteria in the leaves at the insertion site and the formation of a necrotic spot, compared to the control.
The procedure was followed as in Example 32, with the plants sprayed.

[7] = system: powdery mildew fungus; format: in vivo, tomato; settings: 80 mg/L, watered twice; 2 weeks after infection
Method: Tomato plants, at the stage of the first pair of developed true leaves, were watered twice with a solution of substance 1-32 at a concentration of 80 mg/L, at a weekly interval. The control was tomato plants watered only with water. […] The suspension was prepared from culture on solid medium. Protection against biotic stress was evaluated by comparing the area of leaves affected by infection.

[8] = system: Tobacco Mosaic Virus (TMV); assay: Protection of tobacco against TMV infection by watering twice (Example 24); format: in vivo, Nicotiana tabacum cv. Xanthi; settings: watered twice, 7 days after infection
Method: Tobacco plants (Nicotiana tabacum) cv. […] 3,5-dichlorosalicylate of choline; 4. 3-chlorosalicylate of sodium, 5. 3-chlorosalicylate of potassium, 6. 3-chlorosalicylate of calcium, 7. 3-chlorosalicylate of magnesium at a concentration of 10 or 40 or 80 mg/L, at one-week intervals. The control was tobacco plants watered only with water. One week after the second treatment of the plants with the preparation, mechanical infection of the leaves with Tobacco Mosaic Virus (TMV) was carried out. This consisted of rubbing carborundum-sprinkled leaves several times with fingers soaked in a suspension of purified virus at a concentration of about 2 μg/ml. In order to evaluate the effectiveness of the tested substances in protection against biotic stresses, the TMV model and tobacco cv. Xanthi characterized by an interaction in the form of hypersensitivity phenomenon, i.e. the formation of easily quantifiable necrotic spots, were used.

[9] = system: Pseudomonas syringae pv. Tomato (Pst); assay: Protection of tomato against Pseudomonas syringae pv. Tomato by watering (Example 32); format: in vivo; settings: 80 mg/L; watered twice; Pst 10^5; 2 weeks after infection
Method: as §1

[10] = system: Pseudomonas syringae pv. Tomato (Pst); settings: watered twice, Pst 10^5, 2 weeks after infection
Method: Tobacco plants at the stage of 3 developed leaves were watered twice, at a weekly interval, with a solution of test substances 1-11 at concentrations of 10, 40, 80 mg/L. The control was tobacco plants watered with water only. One week after the second treatment, a suspension of Pst bacteria at a concentration of 10^5 was spotted into the leaves using an insulin syringe (without a needle). The suspension was prepared from a two-day culture of Pst on solid medium. Protection against biotic stress was evaluated by the proliferation of bacteria in the leaves at the insertion site and the formation of a necrotic spot, compared to the control.
We proceeded as in Example 30, with the effectiveness of protection against biotic stress tested against bacterial cell concentrations raised to about 10^6.

[11] = system: Brome Mosaic Virus (BMV); assay: Protection of barley against Brome Mosaic Virus infection by watering (Examples 28 and 29); format: in vivo; settings: 80 mg/L, watered twice; 2 weeks after infection

calcium 3-chlorosalicylate
% of necrotic spots [1]: 97%
% of necrotic spots [2]: 97%
% of necrotic spots [3]: 100%
% reduction in necrotic spots compared to control ([4]; 10 mg/L): 20%
% reduction in necrotic spots compared to control ([4]; 40 mg/L): 30%
% reduction in necrotic spots compared to control ([4]; 80 mg/L): 36%
Reduction in necrotic spots (white patches) compared to control [5]: 62%
% reduction in necrotic spots compared to control [6]: 82%
% reduction in necrotic spots compared to control [7]: 69%
% reduction in necrotic spots compared to control ([8]; 10 mg/L): 33%
% reduction in necrotic spots compared to control ([8]; 40 mg/L): 65%
% reduction in necrotic spots compared to control ([8]; 80 mg/L): 97%
% reduction in necrotic spots compared to control [9]: 86%

O=C([O-])c1cccc(Cl)c1O.[Na+] [sodium 3-chlorosalicylate]
% of necrotic spots [1]: 95%
% of necrotic spots [2]: 96%
% of necrotic spots [3]: 97%
% reduction in necrotic spots compared to control ([4]; 10 mg/L): 24%
% reduction in necrotic spots compared to control ([4]; 40 mg/L): 29%
% reduction in necrotic spots compared to control ([4]; 80 mg/L): 55%
Reduction in necrotic spots (white patches) compared to control [5]: 55%
% reduction in necrotic spots compared to control [6]: 51%
% reduction in necrotic spots compared to control [7]: 88%
% reduction in necrotic spots compared to control ([8]; 10 mg/L): 24%
% reduction in necrotic spots compared to control ([8]; 40 mg/L): 63%
% reduction in necrotic spots compared to control ([8]; 80 mg/L): 95%
% reduction in necrotic spots compared to control [9]: 53%

O=C([O-])c1cccc(Cl)c1O.[K+] [potassium 3-chlorosalicylate]
% of necrotic spots [1]: 98%
% of necrotic spots [2]: 98%
% of necrotic spots [3]: 95%
% reduction in necrotic spots compared to control ([4]; 10 mg/L): >10%
% reduction in necrotic spots compared to control ([4]; 40 mg/L): >10%
% reduction in necrotic spots compared to control ([4]; 80 mg/L): 15%
Reduction in necrotic spots (white patches) compared to control [5]: 54%
% reduction in necrotic spots compared to control [6]: 84%
% reduction in necrotic spots compared to control [7]: 84%
% reduction in necrotic spots compared to control ([8]; 10 mg/L): 32%
% reduction in necrotic spots compared to control ([8]; 40 mg/L): 65%
% reduction in necrotic spots compared to control ([8]; 80 mg/L): 98%
% reduction in necrotic spots compared to control [9]: 87%

C[N+](C)(C)CCO.O=C([O-])c1cc(Cl)cc(Cl)c1O
% of necrotic spots [1]: 100%
% of necrotic spots [2]: 96%
% of necrotic spots [3]: 95%
% reduction in necrotic spots compared to control ([4]; 10 mg/L): 36%
% reduction in necrotic spots compared to control ([4]; 40 mg/L): 47%
% reduction in necrotic spots compared to control ([4]; 80 mg/L): 54%
% reduction in necrotic spots compared to control ([10]; 10 mg/L): 27%
% reduction in necrotic spots compared to control ([10]; 40 mg/L): 38%
% reduction in necrotic spots compared to control ([10]; 80 mg/L): 84%
% reduction in necrotic spots compared to control [11]: 77%
Reduction in necrotic spots (white patches) compared to control [5]: 66%
% reduction in necrotic spots compared to control [6]: 57%
% reduction in necrotic spots compared to control [7]: 85%
% reduction in necrotic spots compared to control ([8]; 10 mg/L): 36%
% reduction in necrotic spots compared to control ([8]; 40 mg/L): 58%
% reduction in necrotic spots compared to control ([8]; 80 mg/L): 96%
% reduction in necrotic spots compared to control [9]: 59%

C[N+](C)(C)CCO.O=C([O-])c1cc(Cl)ccc1O [choline 5-chlorosalicylate]
% of necrotic spots [1]: 98%
% of necrotic spots [2]: 98%
% of necrotic spots [3]: 100%
% reduction in necrotic spots compared to control ([4]; 10 mg/L): 39%
% reduction in necrotic spots compared to control ([4]; 40 mg/L): 61%
% reduction in necrotic spots compared to control ([4]; 80 mg/L): 74%
% reduction in necrotic spots compared to control ([10]; 10 mg/L): 28%
% reduction in necrotic spots compared to control ([10]; 40 mg/L): 36%
% reduction in necrotic spots compared to control ([10]; 80 mg/L): 80%
% reduction in necrotic spots compared to control [11]: 36%
Reduction in necrotic spots (white patches) compared to control [5]: 68%
% reduction in necrotic spots compared to control [6]: 88%
% reduction in necrotic spots compared to control [7]: 90%
% reduction in necrotic spots compared to control ([8]; 10 mg/L): 34%
% reduction in necrotic spots compared to control ([8]; 40 mg/L): 62%
% reduction in necrotic spots compared to control ([8]; 80 mg/L): 98%
% reduction in necrotic spots compared to control [9]: 87%
